# Results taken from article PMC6133092, “Synthesis of 2-alkylthio-N-(quinazolin-2-yl)benzenesulfonamide derivatives: anticancer activity, QSAR studies, and metabolic stability” (Monatshefte Fur Chemie, 2018).
# How the values were obtained:
# NCI-H522 = assay: NCI-60 single dose screen, NCI-H522; format: cell-based; conditions: Homo sapiens, NSCLC, single concentration 10^−5 M, read-out: IGP (inhibition growth percent) NCI-H522
# Description: (§1) Aside from above, compounds 9–14 and 17–24 were also submitted to National Cancer Institute and evaluated for the cytotoxic effects toward 60 cell lines at a single dose of 10 μM (Table 2). […] As it was summarized in Table 2, leukemia RPMI-8226 and NSCLC A549/ATCC were most sensitive to compounds 18, 22, and 24. These derivatives in 10 μM concentration inhibited the growth of approximately 50% cells belonging to the above mention cell lines.
# (§2) Cytotoxicity evaluation of compounds 9–14 and 17–24 was performed at the National Cancer Institute according to NCI-60 DTP human tumor cell line screen procedure.
# HCT-116 (colon cancer) = assay: MTT cell viability assay, HCT-116; format: cell-based; conditions: Homo sapiens, 72 h, mean ± SD
# Description: (§3) All chemicals, if not stated otherwise, were obtained from Sigma-Aldrich (St. Louis, MO, USA). The MCF-7 and HeLa cell lines were purchased from Cell Lines Services (Eppelheim, Germany), the HCT-116 cell line was purchased from ATCC (ATCC-No: CCL-247). Cells were cultured in Dulbecco’s modified Eagle’s medium (DMEM) supplemented with 10% fetal bovine serum, 2 mM glutamine, 100 units/cm^3 penicillin, and 100 μg/cm^3 streptomycin. Cultures were maintained in a humidified atmosphere with 5% CO2 at 37 °C in an incubator (Heraceus, HeraCell).
# (§4) Cell viability was determined using the MTT (3-(4,5-dimethylthiazol-2-yl)-2,5-diphenyltetrazolium bromide) assay. Cells were seeded in 96-well plates at a density of 5 × 10^3 cells/well and treated for 72 h with the examined compounds in the concentration range 1–100 μM (1, 10, 25, 50, and 100 μM). Following treatment, MTT (0.5 mg/cm^3) was added to the medium and cells were further incubated for 2 h at 37 °C. Cells were lysed with DMSO and the absorbance of the formazan solution was measured at 550 nm with a plate reader (Victor, 1420 multilabel counter). […] The experiment was performed in triplicate. Values are expressed as the mean ± SD of at least three independent experiments.
# SR = assay: NCI-60 single dose screen, SR; format: cell-based; conditions: Homo sapiens, Leukemia, single concentration 10^−5 M, read-out: IGP (inhibition growth percent) SR
# Description: as §1, §2
# MCF-7 (breast cancer) = assay: MTT cell viability assay, MCF-7; format: cell-based, human; conditions: mean ± SD
# Description: All of the newly synthesized compounds 9–24 were evaluated for their effects on cell viability in three human cancer cell lines: HCT-116 (colon cancer), HeLa (cervical cancer), and MCF-7 (breast cancer). Cisplatin was used as reference drug. […] Considering the activity of derivatives 9–12, 15, 17, 18, and 21–24, it can be noticed that phenyl group as R^3 bring an increase of cytotoxicity in comparison with methyl in place of R^3. However, this impact seems to be the most important for compounds with the bulky group in R^1 and generally, it is less for a set of derivatives with methyl group substituted in R^1 (9–12).
# as §3, §4
# UO-31 = assay: NCI-60 single dose screen, UO-31; format: cell-based; conditions: Homo sapiens, Renal cancer, single concentration 10^−5 M, read-out: IGP (inhibition growth percent) UO-31
# Description: as §1, §2
# RPMI-8226 = assay: NCI-60 single dose screen, RPMI-8226; format: cell-based; conditions: Homo sapiens, RPMI-8226, Leukemia; single concentration 10^−5 M; read-out: IGP (inhibition growth percent) RPMI-8226
# Description: as §1, §2
# HeLa (cervical cancer) = assay: MTT cell viability assay, HeLa; format: cell-based; conditions: Homo sapiens
# Description: as §3, §4
# HOP-92 = assay: NCI-60 single dose screen, HOP-92; format: cell-based; conditions: Homo sapiens, NSCLC, single concentration 10^−5 M, read-out: IGP (inhibition growth percent) HOP-92
# Description: as §1, §2
# PC-3 = assay: NCI-60 single dose screen, PC-3; format: cell-based; conditions: Homo sapiens, Prostate cancer, single concentration 10^−5 M, read-out: IGP (inhibition growth percent) PC-3
# Description: as §1, §2
# UACC-62 = assay: NCI-60 single dose screen, UACC-62; format: cell-based; conditions: Homo sapiens, Melanoma, single concentration 10^−5 M, read-out: IGP (inhibition growth percent) UACC-62
# Description: as §1, §2
# MCF-7 = assay: NCI-60 single dose screen, MCF-7; format: cell-based; conditions: Homo sapiens, MCF7; Breast cancer; single concentration 10^−5 M; read-out: IGP (inhibition growth percent) MCF-7
# Description: as §1, §2
# MOLT-4 = assay: NCI-60 single dose screen, MOLT-4; format: cell-based; conditions: Homo sapiens, Leukemia, single concentration 10^−5 M, read-out: IGP (inhibition growth percent) MOLT-4
# Description: as §1, §2
# [1] = Metabolic stability in human liver microsomes with NADPH; format: in vitro ADME; conditions: pooled human liver microsomes, pH 7.4, human liver microsomes 0.5 mg/cm^3, NADPH 1 mM, 10 μM compound, 37 °C, read-out: in vitro metabolic half-life t1/2
# Description: Selected derivatives were submitted to metabolic stability study to assess their ability to remain unchanged in the presence of human metabolic enzymes. Human liver microsomes were used as they are a rich source of all common CYP isoenzymes. In vitro incubations were performed in the presence of NADPH as a cofactor and the disappearance of a derivative was followed using LC–MS technique. The in vitro metabolic half-life values are gathered in Fig. 3.
# Stock solutions of studied compounds were prepared at concentration of 10 mM in DMSO. […] Incubation mixture contained 10 μM of a studied derivative, 1 mM of NADPH (Sigma-Aldrich) and 0.5 mg/cm^3 of pooled human liver microsomes (HLM, Sigma-Aldrich) in potassium phosphate buffer (0.1 M, pH 7.4). Incubation was carried out in thermostat at 37 °C and started by addition of studied compound. 50 mm^3 samples were taken at starting point and after 5, 15, 30, 45, and 60 min. Enzymatic reaction was terminated by the addition of the equal volume of ice-cold acetonitrile. Incubations were performed in triplicates, the average t1/2 and standard deviation was calculated. Control incubations were performed without NADPH to assess chemical instability. After collection, samples were immediately centrifuged (10 min, 10,000 rpm) and resulted supernatant was directly analyzed or kept in − 80 °C until LC–MS analysis. Natural logarithm of a compound over IS peak area ratio was plotted versus incubation time. Metabolic half-time (t1/2) was calculated from the slope of the linear regression.
# LC–MS analysis was performed on an Agilent 1260 system coupled to SingleQuad 6120 mass spectrometer (Agilent Technologies, Santa Clara, CA, USA). Poroshell EC-C18 (2.1 mm × 150 mm, 2.7 μm, Agilent Technologies, Santa Clara, CA, USA) was used in reversed-phase mode with gradient elution starting with 5% of phase A (10 mM ammonium formate in water) and 95% of phase B (10 mM ammonium formate in acetonitrile–water mixture, 95:5 v/v). […] Total analysis time was 15 min at 40 °C, flow rate was 1 cm^3/min and the injection volume was 5 mm^3. The mass spectrometer was equipped with electrospray ion source and operated in positive ionization. Mass analyzer was set individually to each compound to detect [M+H]^+ protonated molecule. MSD parameters of the ESI source were as follows: nebulizer pressure 35 psig (N2), drying gas […] (N2), drying gas temperature 300 °C, capillary voltage 3 kV, fragmentor voltage 150 V.
# A549/ATCC = assay: NCI-60 single dose screen, A549/ATCC; format: cell-based; conditions: Homo sapiens, A549, NSCLC; single concentration 10^−5 M; read-out: IGP (inhibition growth percent) A549/ATCC
# Description: as §1, §2
# EKVX = assay: NCI-60 single dose screen, EKVX; format: cell-based; conditions: Homo sapiens, NSCLC, single concentration 10^−5 M, read-out: IGP (inhibition growth percent) EKVX
# Description: as §1, §2
# HCT-116 = assay: NCI-60 single dose screen, HCT-116; format: cell-based; conditions: Homo sapiens, Colon cancer, single concentration 10^−5 M, read-out: IGP (inhibition growth percent) HCT-116
# Description: as §1, §2
# [2] = Table 4, repeats Table 1 values without SD and unit
SMILES,inhibition at 10 µM (NCI-H522) [%],IC50 (HCT-116 (colon cancer)) [µM],inhibition at 10 µM (SR) [%],"IC50 (MCF-7 (breast cancer); Homo sapiens, MCF7, 72 h) [µM]",inhibition at 10 µM (UO-31) [%],inhibition at 10 µM (RPMI-8226) [%],"IC50 (HeLa (cervical cancer); MTT, 72 h, mean ± SD) [µM]",IC50 (HeLa (cervical cancer); [2]) [µM],inhibition at 10 µM (HOP-92) [%],inhibition at 10 µM (PC-3) [%],inhibition at 10 µM (UACC-62) [%],inhibition at 10 µM (MCF-7) [%],inhibition at 10 µM (MOLT-4) [%],half-life at 10 μM [1] [min],inhibition at 10 µM (A549/ATCC) [%],inhibition at 10 µM (EKVX) [%],inhibition at 10 µM (HCT-116) [%],IC50 (MCF-7 (breast cancer); 72 h) [µM]
"NC(=O)CSc1cc(Cl)c(C(=O)Nc2ccc(Cl)cc2)cc1S(=O)(=O)Nc1nc(-c2ccccc2)c2ccccc2n1 [Compound 20, 2-Carbamoylmethylthio-4-chloro-5-(4-chlorophenylcarbamoyl)-N-(4-phenylquinazolin-2-yl)benzenesulfonamide]",11,140 ± 4,6,92 ± 1,3,10,110 ± 7,110,4,2,8,3,5,49.7,–,–,–,–
"Cc1cc(S(=O)(=O)Nc2nc(C)c3ccccc3n2)c(SCc2cc3c(cc2Cl)OCO3)cc1Cl [Compound 11, 4-Chloro-2-(6-chlorobenzo[1,3]dioxol-5-ylmethylthio)-5-methyl-N-(4-methylquinazolin-2-yl)benzenesulfonamide]",19,46 ± 1,3,57 ± 2,15,32,58 ± 2,58,–,23,23,4,20,56.8,34,17,30,–
"N.N.[Cl][Pt][Cl] [Cisplatin, reference compound]",–,–,–,–,–,–,–,–,–,–,–,–,–,–,–,–,–,3 ± 0.1
"Cc1nc(NS(=O)(=O)c2cc(C(=O)Nc3ccc(Cl)cc3)c(Cl)cc2SCC(N)=O)nc2ccccc12 [Compound 19, 2-Carbamoylmethylthio-4-chloro-5-(4-chlorophenylcarbamoyl)-N-(4-methylquinazolin-2-yl)benzenesulfonamide]",8,100 ± 4,4,105 ± 3,7,3,117 ± 5,117,8,4,–,4,3,–,–,–,4,–
